Results reported in paper PMC3361628 (European Journal of Medicinal Chemistry, 2012).

Tests used:
BoNT/A LC = BoNT/A LC (Clostridium botulinum, UniProt P0DPI0); type: biochemical
mice = conditions: mouse, in vivo; cited from earlier work
Trypanosoma rhodesiense = conditions: in vivo, 320 mg/kg; cited from earlier work

BoNT/A LC, sequence (P0DPI0 2-448 limits assumed): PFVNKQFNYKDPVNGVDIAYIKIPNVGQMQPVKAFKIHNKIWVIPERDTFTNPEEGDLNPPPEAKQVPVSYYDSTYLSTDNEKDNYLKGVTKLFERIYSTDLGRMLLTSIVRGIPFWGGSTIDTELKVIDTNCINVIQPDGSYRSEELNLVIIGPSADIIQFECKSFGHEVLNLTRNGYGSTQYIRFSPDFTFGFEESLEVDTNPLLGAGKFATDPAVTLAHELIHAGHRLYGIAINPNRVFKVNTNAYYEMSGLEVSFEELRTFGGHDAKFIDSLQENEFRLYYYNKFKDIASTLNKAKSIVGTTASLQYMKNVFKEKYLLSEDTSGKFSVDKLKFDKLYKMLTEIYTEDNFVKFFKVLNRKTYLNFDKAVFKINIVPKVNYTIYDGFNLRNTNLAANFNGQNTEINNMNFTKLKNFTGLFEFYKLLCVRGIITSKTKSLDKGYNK

Row | Structure (SMILES) | decrease in inhibitory potency versus 4b (BoNT/A LC) | other results
1 | Clc1ccc2c(NCCCCNCc3ccc(-c4ccc(-c5ccc(CNCCCCNc6ccnc7cc(Cl)ccc67)cc5)s4)cc3)ccnc2c1.O=C(O)C(F)(F)F [Compound 4c, 4,4′-[thiene-2,5-diylbis(4,1-phenylenemethyleneammoniobutane-4,1-diylimino)]bis(7-chloroquinolinium) tetra(trifluoroacetate)] | approx. 1.8 fold | 
2 | Cl.Cl.N=C(N)c1ccc(-c2ccc(-c3ccc(C(=N)N)cc3)s2)cc1 [Compound 1, 4,4′-Thiene-2,5-diyldibenzenecarboximidamide dihydrochloride] |  | toxicity to mice (mice): non-toxic; survival (Trypanosoma rhodesiense): 100%
3 | Clc1ccc2c(NCCNCc3ccc(-c4ccc(-c5ccc(CNCCNc6ccnc7cc(Cl)ccc67)cc5)s4)cc3)ccnc2c1.O=C(O)C(F)(F)F [Compound 4a, 4,4′-[Thiene-2,5-diylbis(4,1-phenylenemethyleneammonioethane-2,1-diylimino)]bis(7-chloroquinolinium) tetra(trifluoroacetate)] | approx. 3 fold | 
4 | O=C(NCCCNc1ccnc2cc(Cl)ccc12)c1cc(NC(=O)c2ccc(C(=O)Nc3cc(C(=O)NCCCNc4ccnc5cc(Cl)ccc45)cc(C4=NCCN4)c3)cc2)cc(C2=NCCN2)c1 [II, reference compound] |  | increase in inhibitory potency versus I (BoNT/A LC): approx. 15 fold
5 | Clc1ccc2c(NCCCCCNCc3ccc(-c4ccc(-c5ccc(CNCCCCCNc6ccnc7cc(Cl)ccc67)cc5)s4)cc3)ccnc2c1.O=C(O)C(F)(F)F [Compound 4d, 4,4′-[thiene-2,5-diylbis(4,1-phenylenemethyleneammoniopentane-5,1-diylimino)]bis(7-chloroquinolinium) tetra(trifluoroacetate)] | approx. 3 fold | 
